# Measurements taken from article PMC3057096 (Bioorganic & medicinal chemistry, 2010).
# Experiments:
# P. falciparum (W2) = type: cell-based; details: Plasmodium falciparum, W2, read-out: P. falciparum (W2) IC50
# P. falciparum (D6) = type: cell-based; details: Plasmodium falciparum, D6, read-out: P. falciparum (D6) IC50
# [1] = tested on: P. berghei (sensitive strain); assay: In vivo blood-schizontocidal antimalarial activity, rodent malaria model; set-up: species or system mice; details: for P. berghei: mice cured: dose of 25 mg/kg
# [2] = tested on: methicillin-resistant Staphylococcus aureus ATCC 43300 (MRSA); assay: In vitro antibacterial susceptibility testing; type: cell-based; details: ATCC43300|MRSA, read-out: MRSA MIC, NA = no activity at highest test concentration of 20 μg/mL
# Staphylococcus aureus = assay: In vitro antibacterial susceptibility testing; type: cell-based; details: read-out: S. aureus IC50, 50% growth inhibition
# β-hematin (BH) formation = assay: Inhibition of β-hematin; type: biochemical; details: read-out: BH inhibition IC50
# [3] = cited from earlier work
# [4] = rodents; cited from earlier work
structure (smiles),measurement,setting,value
"COc1cc(NC(C)CCCNC(=O)C[C@@H](N)C(=O)NCCCC(C)Nc2cc(OC)cc3cccnc23)c2ncccc2c1.Cl (stereo partly drawn) [Compound 64, N^1,N^4-Bis{4-[(6-methoxyquinolin-8-yl)amino]pentyl}-D-aspartamide·3HCl]",IC50,P. falciparum (W2),3.6 µg/mL
"COc1cc(NC(C)CCCNC(=O)N[C@@H](CCCNC(=N)N)C(=O)NCCCC(C)Nc2cc(OC)cc3cccnc23)c2ncccc2c1.Cl (stereo partly drawn) [Compound 36, N-{4-[(6-methoxyquinolin-8-yl)amino]pentyl}-N^2-({4-[(6-methoxyquinolin-8-yl)-amino]pentyl}carbamoyl)-D-argininamide·3HCl]",IC50,P. falciparum (D6),3.2 µg/mL
same,IC50,P. falciparum (W2),1.8 µg/mL
same,P. berghei in vivo activity class,"[1]; 50 mg/kg/day × 4, oral",Inactive
same,P. berghei in vivo activity class,"[1]; 100 mg/kg/day × 4, oral",Curative
"COc1cc(NC(C)CCCNC(=O)CC[C@H](N)C(=O)NCCCC(C)Nc2cc(OC)cc3ccc(C(C)(C)C)nc23)c2nc(C(C)(C)C)ccc2c1.Cl (stereo partly drawn) [Compound 63, N^1,N^5-Bis{4-[(2-tert-butyl-6-methoxyquinolin-8-yl)amino]pentyl}-L-glutamamide·3HCl]",P. berghei in vivo activity class,"[1]; 100 mg/kg/day × 4, oral",Inactive
"CCCCCOc1c(OC)cc(NC(C)CCCNC(=S)NCCCC(C)Nc2cc(OC)c(OCCCCC)c3c(CC)ccnc23)c2nccc(CC)c12.Cl.Cl (centres unmarked) [Compound 71, 1,3-Bis{4-[4-ethyl-6-methoxy-5-(pentyloxy)quinolin-8-ylamino]pentyl}-thiourea·2HCl]",MIC,[2],5 to 20 µg/mL
"COc1cc(NC(C)CCCNC(=O)NC(=O)NCCCC(C)Nc2cc(OC)cc3cccnc23)c2ncccc2c1.Cl.Cl (centres unmarked) [Compound 74, N,N′-Bis{4-[(6-methoxyquinolin-8-yl)amino]pentyl}dicarbonimidic diamide·2HCl]",P. berghei in vivo activity class,"[1]; 100 mg/kg/day × 4, oral",Inactive
"COc1cc(NC(C)CCCNCOC(=O)NCCCC(C)Nc2cc(OC)cc3cccnc23)c2ncccc2c1.Cl.Cl (centres unmarked) [Compound 76, ({4-[(6-Methoxyquinolin-8-yl)amino]pentyl}amino)methyl{4-[(6-methoxy-quinolin-8-yl)amino]pentyl}carbamate·2HCl]",P. berghei in vivo activity class,"[1]; 100 mg/kg/day × 4, oral",Suppressive
"COc1cc(NC(C)CCCNC(=O)NCCCC(C)Nc2cc(OC)cc3cccnc23)c2ncccc2c1.Cl.Cl (centres unmarked) [Compound 66, 1,3-Bis{4-[(6-methoxyquinolin-8-yl)amino]pentyl}urea·2HCl]",P. berghei in vivo activity class,"[1]; 100 mg/kg/day × 4, oral",Inactive
"COc1cc(NC(C)CCCNC(=O)N[C@H](CCCCN)C(=O)NCCCC(C)Nc2cc(OC)cc3ccc(C(C)(C)C)nc23)c2nc(C(C)(C)C)ccc2c1.Cl (stereo partly drawn) [Compound 43, N-{4-[(2-tert-butyl-6-methoxyquinolin-8-yl)amino]pentyl}-N^2-({4-[(2-tert-butyl-6methoxyquinolin-8-yl)amino]pentyl}carbamoyl)-L-lysinamide·3HCl]",IC50,P. falciparum (D6),1.6 µg/mL
same,P. berghei in vivo activity class,"[1]; 100 mg/kg/day × 4, oral",Suppressive
same,IC50,Staphylococcus aureus,1.78 to 2.73 µg/mL
"COc1cc(NC(C)CCCNC(=O)NCCCC(C)Nc2cc(OC)cc3ccc(C(C)(C)C)nc23)c2nc(C(C)(C)C)ccc2c1.Cl.Cl (centres unmarked) [Compound 68, 1,3-Bis{4-[(2-tert-butyl-6-methoxyquinolin-8-yl)amino]pentyl}urea·2HCl]",IC50,P. falciparum (W2),3.7 µg/mL
same,P. berghei in vivo activity class,"[1]; 100 mg/kg/day × 4, oral",Inactive
"COc1cc(NC(C)CCCNC(=S)NCCCC(C)Nc2cc(OC)cc3cccnc23)c2ncccc2c1.Cl.Cl (centres unmarked) [Compound 67, 1,3-Bis{4-[(6-methoxyquinolin-8-yl)amino]pentyl}thiourea·2HCl]",MIC,[2],5 to 20 µg/mL
"COc1cc(NC(C)CCCNC(=O)C[C@H](N)C(=O)NCCCC(C)Nc2cc(OC)cc3ccc(C(C)(C)C)nc23)c2nc(C(C)(C)C)ccc2c1.Cl (stereo partly drawn) [Compound 62, N^1,N^4-Bis{4-[(2-tert-butyl-6-methoxyquinolin-8-yl)amino]pentyl}-L-aspartamide·3HCl]",IC50,P. falciparum (W2),3.2 µg/mL
same,P. berghei in vivo activity class,"[1]; 100 mg/kg/day × 4, oral",Inactive
"COc1cc(NC(C)CCCN)c2ncccc2c1 (centres unmarked) [PQ, primaquine]",IC50,β-hematin (BH) formation,> 1000 µM
same,half life,[3],4 to 6 h
same,time at which two major metabolites start appearing in the blood,[4],about 30 min
"COc1cc(NC(C)CCCNCCNCCNCCCC(C)Nc2cc(OC)cc3cccnc23)c2ncccc2c1.Cl.Cl (centres unmarked) [Compound 79, N^1,N^1′-(iminodiethane-2,1-diyl)bis[N^4-(6-methoxyquinolin-8-yl)pentane-1,4-diamine]·2HCl]",P. berghei in vivo activity class,"[1]; 10 mg/kg/day × 4, oral",Suppressive
same,P. berghei in vivo activity class,"[1]; 25 mg/kg/day × 4, oral",Curative
same,P. berghei in vivo activity class,"[1]; 50 mg/kg/day × 4, oral",Curative
same,P. berghei in vivo activity class,"[1]; 100 mg/kg/day × 4, oral",Curative
same,P. berghei: mice cured,[1],100%
"COc1cc(NC(C)CCCNC(=O)c2cncc(C(=O)NCCCC(C)Nc3cc(OC)cc4ccc(C(C)(C)C)nc34)c2)c2nc(C(C)(C)C)ccc2c1.Cl (centres unmarked) [Compound 85, N,N′-Bis{4-[(2-tert-butyl-6-methoxyquinolin-8-yl)amino]pentyl}pyridine-3,5-dicarboxamide·3HCl]",IC50,P. falciparum (D6),2.7 µg/mL
same,IC50,P. falciparum (W2),1.8 µg/mL
"COc1cc(NC(C)CCCNC(=O)CC[C@H](N)C(=O)NCCCC(C)Nc2cc(OC)cc3cccnc23)c2ncccc2c1.Cl (stereo partly drawn) [Compound 61, N^1,N^5-Bis{4-[(6-methoxyquinolin-8-yl)amino]pentyl}-L-glutamamide·3HCl]",IC50,P. falciparum (D6),2.7 µg/mL
same,IC50,P. falciparum (W2),2.2 µg/mL
same,P. berghei in vivo activity class,"[1]; 10 mg/kg/day × 4, oral",Suppressive
same,P. berghei in vivo activity class,"[1]; 25 mg/kg/day × 4, oral",Curative
same,P. berghei in vivo activity class,"[1]; 50 mg/kg/day × 4, oral",Curative
same,P. berghei in vivo activity class,"[1]; 100 mg/kg/day × 4, oral",Curative
same,P. berghei: mice cured,[1],100%
"COc1cc(NC(C)CCCNC(=O)N[C@H](CCCCN)C(=O)NCCCC(C)Nc2cc(OC)cc3cccnc23)c2ncccc2c1.Cl (stereo partly drawn) [Compound 38, N-{4-[(6-methoxyquinolin-8-yl)amino]pentyl}-N^2-({4-[(6-methoxyquinolin-8-yl)-amino]pentyl}carbamoyl)-L-lysinamide·3HCl]",IC50,P. falciparum (D6),3.6 µg/mL
"COc1cc(NC(C)CCCNC(=O)N[C@@H](CCCN)C(=O)NCCCC(C)Nc2cc(OC)cc3ccc(C(C)(C)C)nc23)c2nc(C(C)(C)C)ccc2c1.Cl (stereo partly drawn) [Compound 42, N-{4-[(2-tert-butyl-6-methoxyquinolin-8-yl)amino]pentyl}-N^2-({4-[(2-tert-butyl-6methoxyquinolin-8-yl)amino]pentyl}carbamoyl)-D-ornithinamide·3HCl]",IC50,P. falciparum (W2),3.2 µg/mL
"COc1cc(NC(C)CCCNC(=O)N[C@@H](CCCN)C(=O)NCCCC(C)Nc2cc(OC)cc3cccnc23)c2ncccc2c1.Cl (stereo partly drawn) [Compound 37, N-{4-[(6-methoxyquinolin-8-yl)amino]pentyl}-N^2-({4-[(6-methoxyquinolin-8-yl)-amino]pentyl}carbamoyl)-D-ornithinamide·3HCl]",P. berghei in vivo activity class,"[1]; 100 mg/kg/day × 4, oral",Inactive
